Usually AC50 stands for the concentration giving half of the maximal activity seen.

Like-named read-outs stand apart in the source and are kept apart here. Where a SMILES comes first, the peptide text is derived from it. [ ]: non-standard residue; d: D form. ξ: configuration not given here. ξLac(3-iPr) = CC(C)CC(O)C(=O)O; NMeV = CN[CH](C(=O)O)C(C)C; NMeA = CN[CH](C)C(=O)O; βAla = NCCC(=O)O

In the experiment the test system is wild-type ZIKV (Ugandan MR766 strain) in Vero cells. The experiment in a line: ZIKV cytopathic effect (CPE) inhibition qHTS assay, CellTiter-Glo readout. It counts as cell-based, Zika virus. The note with it: for Emax: read-out: Max response. On the technique in general: Damage to the host cells serves as the signal in cytopathic effect assays.
Where [1] appears, read: Zika virus, Vero, read-out: Log AC50 (M) (converted).
Setting [2] is: Zika virus, Vero, read-out: Log AC50 (converted).

Turning to `O=S(=O)(c1ccc(S(=O)(=O)n2cnc3ccccc32)cc1)N1CCCCCC1` [MLS000033224-02], the “CC-v2 (curve class classification of the dose response curve)” value (from here on “CC-v2”) was -3 and the Efficacy is given as -29.668. This compound also gave an AC50 (Zika virus, Vero) of 3.17e-05 M. Besides, the AC50 under setting [1] was 3.17e-05 M.

Consider `O=c1c2ccccc2nc2n1CCc1c-2[nH]c2ccccc12` [NCGC00015892-08], for which the “CC-v2” value is listed as -2.2 and the Efficacy is -34.451. Where the note is “Zika virus, Vero”, this compound came in with an AC50 of 4.11e-05 M. For the same compound, the AC50 under setting [1] is 4.11e-05 M.

Regarding `COc1ccc(CCN(C)CCCC(C#N)(c2ccc(OC)c(OC)c2)C(C)C)cc1OC` (centres unmarked) [NCGC00016083, Verapamil, reference compound], the “Identified as active in CPE assay validation set” value (“Identified as active” below) is “identified”.

As to `COc1ccc2c(OC)c3ccoc3nc2c1OC` [NCGC00016333-05], the Efficacy is listed as -23.663. Also, the AC50 (Zika virus, Vero) was 1.84e-05 M. Moreover, the AC50 under setting [1] was 1.84e-05 M.

For the compound `C[S+]([O-])c1ccc(-c2nc(-c3ccncc3)c(-c3ccc(F)cc3)[nH]2)cc1` (centres unmarked) [NCGC00025035, SB-203580, reference compound], the “Identified as active” value is given as “identified”.

In the case of `CCOC(=O)C1=C(N)Oc2ccc(Br)cc2C1C(C#N)C(=O)OCC` (centres unmarked) [NCGC00025207-15], the Efficacy is -30.652. The AC50 under setting [1] is 7.31e-05 M.

`CCOC(=O)C1=C(N)Oc2ccc(Br)cc2C1C(C#N)C(=O)OCC` (centres unmarked) [NCGC00025207-16] displayed an AC50 of 3.26e-05 M, a Curve class of -3 and an Efficacy of -33.191. For the same compound, the AC50 under setting [2] is 3.26e-05 M. Also, the Emax (Zika virus, Vero) was -2.2%.

For `C[C@H]1O[C@@H](O[C@H]2[C@@H](O)C[C@H](O[C@H]3[C@@H](O)C[C@H](O[C@H]4CC[C@@]5(C)[C@H](CC[C@@H]6[C@@H]5C[C@@H](O)[C@]5(C)[C@@H](C7=CC(=O)OC7)CC[C@]65O)C4)O[C@@H]3C)O[C@@H]2C)C[C@H](O)[C@@H]1O` [NCGC00090797-15], the Efficacy was -19.155. Where the note is “Zika virus, Vero”, this compound showed an AC50 of 8.2e-06 M. Also, under setting [1], the AC50 was 8.2e-06 M.

`O=C1Nc2ccc(Cl)cc2[C@@](C#CC2CC2)(C(F)(F)F)O1` [NCGC00159337, efavirenz, reference compound]: the “Identified as active” value was “identified”.

In turn, `COc1ccc2cc1Oc1ccc(cc1)C[C@H]1c3c(cc4c(c3Oc3cc5c(cc3OC)CCN(C)[C@@H]5C2)OCO4)CCN1C` [NCGC00161621-05] gave an Efficacy of -31.519. The compound also showed an AC50 (Zika virus, Vero) of 6.51e-05 M. Also, the AC50 under setting [1] is 6.51e-05 M.

In the case of `CN(C)CC1CCn2c(c(C3=C(c4cn(C)c5ccccc45)C(=O)NC3=O)c3ccccc32)C1` (centres unmarked) [NCGC00163696-04], the Efficacy is -28.697. The compound also displayed a concentration at half-maximal activity (AC50) (Zika virus, Vero) of 3.26e-05 M. In addition, under setting [1], the AC50 was 3.26e-05 M.

Consider `O=C1c2c(O[C@@H]3O[C@H](CO)[C@@H](O)[C@H](O)[C@H]3O)cc(O)cc2OC1(O)Cc1ccc(O)cc1` (some centres unmarked) [NCGC00168800-03], for which the “CC-v2” value is on record as -3 and the Efficacy was -41.876. This compound returned an AC50 (Zika virus, Vero) of 3.17e-05 M. Moreover, the half-maximal activity concentration (AC50) under setting [1] was 3.17e-05 M.

For `C=C1C(=O)O[C@@H]2C3C(=C(C)[C@@H](O)[C@@H](OC(=O)/C(=C/C)COC(C)=O)[C@@H]12)C(=O)[C@H]1O[C@@]31C` (some centres unmarked) [NCGC00168883-03], the “CC-v2” value is on record as -2.1 and the Efficacy is listed as -116.882. For the same compound, the activity (Zika virus, Vero) was half-maximal at 3.17e-05 M (AC50). The AC50 under setting [1] was 3.17e-05 M.

In the case of `C=CC/C=C\C/C=C\CCCCCCCc1cc(O)cc(O)c1` [NCGC00168928-02], the Efficacy is recorded as -22.946. The compound also came in with a half-maximal activity concentration (AC50) (Zika virus, Vero) of 4.53e-05 M. The AC50 under setting [1] is 4.53e-05 M.

As for `COc1cc2occc2c(O[C@@H]2O[C@H](CO)[C@@H](O)[C@H](O)[C@H]2O)c1CCC(=O)O` [NCGC00168932-02], the “CC-v2” value is given as -3 and the Efficacy is -83.984. This compound also returned an AC50 (Zika virus, Vero) of 1.59e-05 M. Also, under setting [1], the half-maximal activity concentration (AC50) was 1.59e-05 M.

The compound `CC(=O)O[C@@]1(C)C[C@@H](O)[C@]2(O)C=CO[C@@H](O[C@@H]3O[C@H](CO)[C@@H](O)[C@H](O)[C@H]3O)[C@@H]21` [NCGC00169032-03] returned a Curve class of -3 and an Efficacy of -81.683. Further, under “Zika virus, Vero”, half-maximal activity (AC50) was put at 1.42e-05 M and the Emax was determined as 1.21%. Moreover, the concentration at half-maximal activity (AC50) under setting [2] was 1.42e-05 M.

Take `C/C=C(/C)C(=O)O[C@H]1C=C(CO)C(=O)[C@H](OC(=O)/C(C)=C/CO)[C@H]1C(C)C` [NCGC00169078-03]: the “CC-v2” value is -3 and the Efficacy is on record as -32.45. Besides, the AC50 (Zika virus, Vero) amounted to 5.08e-05 M. Besides, under setting [1], the AC50 is 5.08e-05 M.

Turning to `C=C1C(=O)O[C@@H]2C[C@H](C)[C@@H]3CC(=O)C(C)=C3C[C@H]12` [NCGC00169080-02], the Curve class is listed as -3 and the Efficacy is -111.978. In addition, for the setting “Zika virus, Vero”, the activity was half-maximal at 6.51e-05 M (AC50) and the Emax was -89.7%. In addition, the AC50 under setting [2] was 6.51e-05 M.

With `C=C(C)C(=O)O[C@H]1[C@H]2C(=C)C(=O)O[C@@H]2C[C@@H](C)/C=C\C(=O)[C@](C)(O)[C@@H]1OC(C)=O` [NCGC00169210-02], the Curve class is listed as -3 and the Efficacy is -39.663. Besides, where the note is “Zika virus, Vero”, the AC50 came to 3.55e-05 M and the Emax is -40.2%. Further, under setting [2], the AC50 was 3.55e-05 M.

In the case of `C=C(C)C(=O)O[C@H]1[C@H]2C(=C)C(=O)O[C@@H]2C[C@@H](C)[C@@H]2O[C@@H]2C(=O)[C@](C)(O)[C@@H]1OC(=O)C(=C)C` [NCGC00169479-03], the “CC-v2” value is given as -3 and the Efficacy is reported as -35.91. The compound also displayed an AC50 (Zika virus, Vero) of 3.55e-05 M. Besides, the AC50 under setting [1] was 3.55e-05 M.

`C[C@H]1C(=O)N2c3ccccc3[C@@]3(O)C[C@@H]4C(=O)N[C@](C)(c5nc6ccccc6c(=O)n54)N1[C@@H]23` [NCGC00169614-02] showed a Curve class of -3 and an Efficacy of -78.987. For the setting “Zika virus, Vero”, the activity was half-maximal at 1.59e-05 M (AC50) and the Emax amounted to 0.173%. Moreover, under setting [2], the AC50 is 1.59e-05 M.

As to `C=C(C(=O)O)[C@@H]1CC[C@@]2(C)CCC[C@@](C)(O)[C@@H]2C1` [NCGC00169889-02], the Curve class was -3 and the Efficacy is reported as -77.65. In addition, under “Zika virus, Vero”, the AC50 was determined as 2.91e-05 M and the Emax was -0.865%. The AC50 under setting [2] was 2.91e-05 M.

For the compound `CCC(C)C1NC(=O)C2CCCN2C(=O)C(CC(C)C)OC(=O)CCNC(=O)C(C)N(C)C(=O)C(C(C)C)N(C)C1=O` (centres unmarked) [NCGC00169957-03] (cyclo([ξLac(3-iPr)]PI[NMeV][NMeA][βAla]); configuration not given here), the “CC-v2” value is reported as -2.2 and the Efficacy was -56.609. Besides, half-maximal activity (Zika virus, Vero) (AC50) was put at 1.93e-05 M. The AC50 under setting [1] was 1.93e-05 M.

As to `CC1(C)CC[C@]2(C(=O)O)CC[C@]3(C)C(=CCC4[C@@]5(C)CC[C@H](O[C@@H]6O[C@H](C(=O)O)[C@@H](O[C@@H]7OC[C@@H](O)[C@H](O)[C@H]7O)[C@H](O)[C@H]6O)C(C)(C)C5CC[C@]43C)C2C1O` (some centres unmarked) [NCGC00179805-02], the “CC-v2” value is listed as -3 and the Efficacy was -39.908. Also, the AC50 (Zika virus, Vero) was determined as 2.73e-05 M. For the same compound, the AC50 under setting [1] was 2.73e-05 M.

Take `COC(=O)C12CCC(C)C(C)C1C1=CCC3C4(C)CCC(OC(C)=O)C(C)(C)C4CCC3(C)C1(C)CC2` (centres unmarked) [NCGC00179932-02]: the “CC-v2” value is -3 and the Efficacy was -73.633. In addition, the AC50 (Zika virus, Vero) is 1.42e-05 M. Also, the AC50 under setting [1] is 1.42e-05 M.

Compound `C=C(C)C1=C[C@@]2(C)C(=CC1=O)CC[C@@H](O)[C@@H]2C` [NCGC00180357-02] came in with an Efficacy of -25.033. Besides, the AC50 (Zika virus, Vero) was found to be 1.46e-05 M. Also, the AC50 under setting [1] is 1.46e-05 M.

`CO[C@H]1[C@H](O)[C@H](O[C@H]2CC[C@]3(C)C4CC[C@]5(C)[C@H](C6=CC(=O)OC6)CC[C@]5(O)C4CC[C@@H]3C2)O[C@@H](C)[C@@H]1O` (some centres unmarked) [NCGC00180641-02] gave an Efficacy of -18.714. Also, the AC50 (Zika virus, Vero) stood at 1e-06 M. Also, under setting [1], the AC50 is 1e-06 M.

Consider `C=C[C@H]1[C@H](O[C@@H]2O[C@H](CO)[C@@H](O)[C@H](O)[C@H]2O)OC=C2C(=O)OCC[C@H]21` [NCGC00180755-03], for which the AC50 (Zika virus, Vero, from Hill fit of the response curve, 50% of maximum activity response, 194 cherry-picked compounds, protocol name not given, read-out: AC50) came out at 1.28e-05 M and the AC50 (Zika virus, Vero, potency in log units (Molar) from Hill fit of the response curve, 194 cherry-picked compounds, protocol name not given, read-out: Log AC50 (converted)) was 1.28e-05 M. Also, for the setting “curve class v2 (Inglese et al. 2006)”, the “CC-v2” value is on record as -3. Where the note is “difference between neutral response and maximum compound response”, this compound had an Efficacy of -78.228.

For the compound `C/C=C(\C)C(=O)O[C@H]1C=C(CO)C(=O)[C@H](OC(C)=O)[C@H]1C(C)C` [NCGC00180769-03], the “CC-v2” value is given as -3 and the Efficacy is listed as -32.712. This compound also displayed an AC50 (Zika virus, Vero) of 4.53e-05 M. In addition, under setting [1], the AC50 is 4.53e-05 M.

Consider `COc1cc(O)c2c(c1)/C=C/C[C@H](O)[C@H](O)C(=O)/C=C\C[C@H](C)OC2=O` [NCGC00186421-07], for which the “CC-v2” value is recorded as -3 and the Efficacy is given as -83.256.

Take `COC(=O)[C@]12CCC(C)(C)C[C@H]1[C@H]1C(=O)C=C3[C@@]4(C)C=C(C#N)C(=O)C(C)(C)[C@@H]4CC[C@@]3(C)[C@]1(C)CC2` [NCGC00186460, bardoxolone methyl, reference compound]: the “Identified as active” value is recorded as “identified”.

`COc1cc2c(NC3CCN(C(C)C)CC3)nc(C3CCCCC3)nc2cc1OCCCN1CCCC1` [NCGC00189220-03]: the Efficacy is -26.68. In addition, the AC50 (Zika virus, Vero) worked out at 7.31e-05 M. The AC50 under setting [1] was 7.31e-05 M.

`CC(C)(O)CCc1ccc(OCc2cc(-c3cccc(OC(F)F)c3)c3ncccc3c2)cc1` [NCGC00249759-02]: the Efficacy was -26.837. Under “Zika virus, Vero”, this compound displayed an AC50 of 3.26e-05 M. Further, the AC50 under setting [1] was 3.26e-05 M.

Values taken from article PMC8765781, “A platform of assays for the discovery of anti-Zika small-molecules with activity in a 3D-bioprinted outer-blood-retina model” (PLoS ONE, 2022).
